# Measurements: US9452122B2, “Composition for improving skin conditions, containing extracellular domain of human bone morphogenetic protein receptor 1a as active ingredient” (JOINT CENTER FOR BIOSCIENCES, priority 2011, dated 2016)
# Test system: wrinkles induced by UV radiation in SKH-1 nude mice
# Assay: Wrinkle improvement effect of thioredoxin-human BMPR1a ECD in UV-irradiated nude mice (Example 5)
# Format: in vivo
# Conditions: UV 3 times/week for 11 weeks, 300 μl sample 5 times/week (proteins 1 μM, retinoic acid 0.01%)
# Method: SKH-1 nude mice (female, 4 weeks old, DooYeol Biotech, Korea) were acclimated for about 2 weeks under conditions of a temperature of 24±2° C. and a humidity of 50±10% in a 12-hr light/12-hr dark cycle, and then divided into six groups for the experiment.
# The protein group and control group were respectively treated with […] corresponding samples every week five times. For UV treatment, the back of each mouse was uniformly coated with the previously prepared sample one hour before UV radiation by using Art brush No. 3 (Hwahong, Incheon Korea).
# VLX-3W stimulator(Vilber Lourmat, Marne la Vallee, France) was used for a UV radiation equipment. UV radiation was conducted three times every week for a total of 11 weeks: 40 mJ/cm^2 for 1st to 2nd weeks; 50 mJ/cm^2 for 3rd to 4th weeks; 60 mJ/cm^2 for 5th to 9th weeks; and 70 mJ/cm^2 for 10th to 11th weeks.
# As the result of integration of the evaluations on respective items through observation by the naked eye, it was verified that skin wrinkles were improved by about 38% in the group coated with retinoic acid, about 42% in the group treated with Lipo-BMPR1a ECD, and about 59% in the group treated with Lipo-thioredoxin-BMPR1a ECD.
smiles,measurement,value
CC1=C(/C=C/C(C)=C/C=C/C(C)=C/C(=O)O)C(C)(C)CCC1 [retinoic acid],skin wrinkles improved (wrinkle scores of 10 grades from photographs),about 38%
